Tests used:
Assay type in all cases: cell-based, human
CD4+ T cells = assay: SINLV-GFP lentiviral transduction of activated CD4+ T cells
Description: CD4^+ T cells were activated in RPMI, supplemented with 10% FBS, penicillin (100 IU/mL), streptomycin (100 μg/mL), 2% glutamine, phytohaemagglutanin (PHA) (2 μg/mL, Roche) and IL-2 (300 IU/mL, Novartis) for three days and maintained in RPMI supplemented with 10% FBS, penicillin (100 IU/mL), streptomycin (100 μg/mL), 2% glutamine and IL-2 (300 UI/mL). Monocyte-derived macrophages (MDM) were differentiated from isolated CD14^+ monocytes in DMEM supplemented with 10% FBS, penicillin (100 IU/mL), streptomycin (100 μg/mL), 2% glutamine and 5% human serum AB (Lonza) for seven days.
Human CB and BM-derived haematopoietic stem/progenitor cells (HSPC) were cultured in serum-free StemSpan medium (StemCell Technologies) supplemented with 100 ng/mL recombinant human stem cell factor (rhSCF), 20 ng/mL recombinant human thrombopoietin (rhTPO), 100 ng/mL recombinant human Flt3 ligand (rhFlt3) and 20 ng/mL recombinant human IL6 (rhIL6) (all from Peprotech) 16 to 24 hours prior to transduction. […] After transduction, cells were washed and maintained serum-free StemSpan supplemented with cytokines as above until the reading of GFP-positive (GFP+) cells by FACS. […]
GFP expression in transduced cells was measured 5-7 days post-transduction. […]

[1] = test system: CB-derived CD34+ HSPC clonogenic progenitors; assay: Colony-forming cell assay of transduced CB-derived CD34+ cells; conditions: MOI 10; plating of vital cells in methylcellulose (FIG. 21A)
Description: Colony-forming cell assays were performed by plating 8×10^2 human cord blood-derived CD34^+ cells transduced with SINLV-GFP at a MOI of 10 in presence of the different compounds in a methylcellulose-based medium (Methocult GF4434, Stem Cell Technologies). 15 days later, colonies were scored by light microscopy for colony numbers and morphology. CFU-E and BFU-E were scored as erythroid colonies, while CFU-G, CFU-M, CFU-GM and CFU-GEMM as myeloid colonies.
Human differentiated cells from CFC were harvested from a single plate (pool of colonies) and mixed into a single cell suspension. Cells were then washed and resuspended in PBS containing 2% FBS. For immunostaining, cells were incubated with anti-human receptor blocking antibodies for 15 min at 4° C. and then stained for 20 min at 4° C. with anti-human CD235a and CD33 antibodies (for antibodies, see Table 1). To exclude dead cells from the analysis, cells were washed and resuspended in PBS containing 10 ng/mL 7-aminoactinomycin D (7-AAD).

CB-derived CD34+ cells = assay: LV replication intermediates (late-RT, 2LTR circles, integrated copies) in CB-derived CD34+ cells
Description: (§1) CsA and rapamycin act on distinct steps on the LV life cycle. […] The LV genome fate was tracked by measuring late-RT product (A) and 2LTR circles (B) 24 hours after transduction and integrated proviral copies 2 weeks after transduction (C). Data represent the mean±SEM of four independent experiments expressed as fold versus DMSO WT (A,B) or as absolute copies/cell (C). D. IDLV transduction efficiency was measured 3 days after transduction by FACS and by measuring the retrotranscribed LV DNA products by PCR. Data are the mean±SEM of three independent experiments. P values are for one-way with Bonferonni's multiple comparison. *P<0.05, **P<0.01, ****P<0.0001.
as §1, with “FACS (left panel)” for “FACS”, “PCR (right panel).” for “PCR.”, “P values are for one-way with Bonferonni's multiple comparison. *P<0.05, **P<0.01, ****P<0.0001.” left out
To analyse viral replication intermediates, transduced cells were washed and resuspended in Monini lysis buffer (0.1% polyoxyethylene 10 lauryl ether (Sigma), 0.1 mg/mL proteinase K (Promega)) (25 μL per 1×10^5 cells), incubated at 65° C. for 2 h and heat inactivated at 94° C. for 15 min (Monini, P. et al. (1999) Blood 93: 4044-58). […] Late-RT and 2LTR circles were measured by semi-quantitative Taqman assay with primers described below and normalised using the human TERT gene. Results are expressed as fold versus the DMSO control, as described above.
DNA from cell cultures was extracted using a Maxwell 16 instrument (Promega) or Blood & Cell Culture DNA Micro Kit (Qiagen). […] Vector copy numbers and replication intermediates were normalised to genomic DNA content, which was assessed using the human TERT gene. […]

IFNα = IFNα ELISA on supernatants of transduced CB-derived HSPC; conditions: CB-derived HSPC 24 hours after exposure (FIG. 26)
Description: IFNα levels in supernatants from HSPC transduced in the presence of the agents. […] IFNα concentration was assessed using the VeriKine™ Human IFN Alpha ELISA Kit. HUVEC-10 cells were used as a positive control and the medium in which the cells were cultured as the negative control. Data represent the mean±SEM of three independent experiments.
To assess the secretion of human IFNα upon transduction of CB-derived HSPCs in the presence of the different compounds, supernatants from transduced cells were harvested 24 hours post-transduction and the IFNα concentration was assessed using the VeriKine™ Human IFN Alpha ELISA Kit (PBL interferon source, #41100) according to manufacturer's instructions.

## CO[C@H]1C[C@@H]2CC[C@@H](C)[C@@](O)(O2)C(=O)C(=O)N2CCCC[C@H]2C(=O)O[C@H]([C@H](C)C[C@@H]2CC[C@@H](O)[C@H](OC)C2)CC(=O)[C@H](C)/C=C(\C)[C@@H](O)[C@@H](OC)C(=O)[C@H](C)C[C@H](C)/C=C/C=C/C=C/1C [rapamycin, Rapamycin]
CD4+ T cells; CA mutant SINLVs MOI 1
  impact on transduction among the different CA mutants: did not vary
CD4+ T cells; MOI 1, 20 μm FK506 or 10 μg/mL rapamycin
  impact on LV transduction efficiency (in words): a similar trend was observed
[1]
  number of total, CFU-GM (myeloid) and BFU-E (erythroid) colonies: No significant differences
CB-derived CD34+ cells; 10 μg/ml rapamycin, 24 hours after transduction
  2-long-terminal-repeat (2LTR) circles vs DMSO: consequent increase
CB-derived CD34+ cells; WT, A88T or A92E LV, 10 μg/ml rapamycin, 24 hours after transduction
  late-RT products vs DMSO, independently of the CA: two to threefold increase
CB-derived CD34+ cells; all vectors, 2 weeks after transduction
  integrated vector (proviral) copies vs DMSO: increase
IFNα
  IFNα secretion: no detectable levels

Source: patent publication US10391201B2, “Gene therapy” (Ospedale San Raffaele S.r.l., priority 2014, dated 2019)
